The subject of the assay is MT4. The assay can be described thus: Inhibitory potency of gp41 fragment against HIV-1 induced cytopathic effect in MT-4 cell assay. The class given is functional, cell-based. Conditions: Homo sapiens. For orientation: Cytopathic effects are the visible damage that an infection or toxin causes in cultured cells.

Peptide text beside a SMILES is read from it.

`CC[C@H](C)[C@H](NC(=O)CNC(=O)[C@H](Cc1c[nH]c2ccccc12)NC(=O)[C@@H](NC(=O)[C@@H](NC(=O)[C@H](CC(C)C)NC(=O)[C@H](CCC(N)=O)NC(=O)[C@H](CC(C)C)NC(=O)[C@H](CC(C)C)NC(=O)CCCCCN)[C@@H](C)O)C(C)C)C(=O)N[C@@H](CCCCN)C(=O)N[C@@H](CCC(N)=O)C(=O)N[C@@H](CC(C)C)C(=O)N[C@@H](CCC(N)=O)C(=O)N[C@@H](C)C(=O)N[C@@H](CCCN=C(N)N)C(=O)N[C@H](C(=O)N[C@@H](CC(C)C)C(=O)O)[C@@H](C)CC` (HELM PEPTIDE1{[NCCCCCC(=O)[*:2]].L.L.Q.L.T.V.W.G.I.K.Q.L.Q.A.R.I.L}$$$$V2.0) showed an IC50 of 10.4 µM.
The figure for `CC[C@H](C)[C@H](NC(=O)CNC(=O)[C@H](Cc1c[nH]c2ccccc12)NC(=O)[C@@H](NC(=O)[C@@H](NC(=O)[C@H](CC(C)C)NC(=O)[C@H](CCC(N)=O)NC(=O)[C@H](CC(C)C)NC(=O)[C@H](CC(C)C)NC(=O)[C@H](Cc1c[nH]cn1)NC(=O)[C@H](CCC(N)=O)NC(=O)[C@H](CCC(N)=O)NC(=O)[C@H](C)NC(=O)[C@H](CCC(=O)O)NC(=O)[C@@H](NC(=O)[C@H](C)NC(=O)[C@H](CCCN=C(N)N)NC(=O)[C@H](CC(C)C)NC(=O)[C@H](CC(C)C)NC(=O)[C@H](CC(N)=O)NC(=O)[C@H](CC(N)=O)NC(C)=O)[C@@H](C)CC)[C@@H](C)O)C(C)C)C(=O)N[C@@H](CCCCN)C(=O)N[C@@H](CCC(N)=O)C(=O)N[C@@H](CC(C)C)C(=O)N[C@@H](CCC(N)=O)C(=O)N[C@@H](C)C(=O)N[C@@H](CCCN=C(N)N)C(=O)N[C@H](C(=O)N[C@@H](C)C(=O)N[C@@H](C)C(=O)N[C@@H](C)C(=O)NCCCCCC(=O)N[C@@H](C)C(=O)N[C@@H](C)C(=O)N[C@@H](C)C(=O)N[C@@H](C)C(=O)N[C@@H](CC(=O)O)C(=O)N[C@@H](CCCCN)C(=O)O)[C@@H](C)CC` (HELM PEPTIDE1{[ac].N.N.L.L.R.A.I.E.A.Q.Q.H.L.L.Q.L.T.V.W.G.I.K.Q.L.Q.A.R.I.A.A.A.[O=C(CCCCCN[*:1])[*:2]].A.A.A.A.D.K}$$$$V2.0) is 6.3 µM; for `CC[C@H](C)[C@H](NC(=O)CNC(=O)[C@H](Cc1c[nH]c2ccccc12)NC(=O)[C@@H](NC(=O)[C@@H](NC(=O)[C@H](CC(C)C)NC(=O)[C@H](CCC(N)=O)NC(=O)[C@H](CC(C)C)NC(=O)CNC(=O)CNC(=O)[C@H](CS)NC(C)=O)[C@@H](C)O)C(C)C)C(=O)N[C@@H](CCCCN)C(=O)N[C@@H](CCC(N)=O)C(=O)N[C@@H](CC(C)C)C(=O)N[C@@H](CCC(N)=O)C(=O)N[C@@H](C)C(=O)N[C@@H](CCCN=C(N)N)C(=O)N[C@H](C(=O)N[C@@H](CC(C)C)C(=O)N[C@@H](C)C(=O)N[C@H](C(=O)N[C@@H](CCC(=O)O)C(=O)N[C@@H](CCCN=C(N)N)C(=O)N[C@@H](Cc1ccc(O)cc1)C(=O)N[C@@H](CC(C)C)C(=O)N[C@@H](CCCCN)C(=O)N[C@@H](CC(=O)O)C(=O)N[C@@H](CCC(N)=O)C(=O)O)C(C)C)[C@@H](C)CC` (Ac-CGGLQLTVWGIKQLQARILAVERYLKDQ-OH) it is 60.5 µM; for `CC[C@H](C)[C@H](NC(=O)[C@H](CCCN=C(N)N)NC(=O)[C@H](C)NC(=O)[C@H](CCC(N)=O)NC(=O)[C@H](CC(C)C)NC(=O)[C@H](CCC(N)=O)NC(=O)CCCCCNC(=O)CNC(=O)[C@H](Cc1c[nH]c2ccccc12)NC(=O)[C@@H](NC(=O)[C@@H](NC(=O)[C@H](CC(C)C)NC(=O)[C@H](CCC(N)=O)NC(=O)[C@H](CC(C)C)NC(=O)[C@H](CC(C)C)NC(=O)[C@H](Cc1c[nH]cn1)NC(=O)[C@H](CCC(N)=O)NC(C)=O)[C@@H](C)O)C(C)C)C(=O)N[C@@H](CC(C)C)C(=O)N[C@@H](C)C(=O)N[C@H](C(=O)N[C@@H](CCC(=O)O)C(=O)O)C(C)C` (HELM PEPTIDE1{[ac].Q.H.L.L.Q.L.T.V.W.G.[O=C(CCCCCN[*:1])[*:2]].Q.L.Q.A.R.I.L.A.V.E}$$$$V2.0) it is 40 µM.
The figure for `CC[C@H](C)[C@H](NC(=O)CNC(=O)[C@H](Cc1c[nH]c2ccccc12)NC(=O)[C@@H](NC(=O)[C@@H](NC(=O)[C@H](CC(C)C)NC(=O)[C@H](CCC(N)=O)NC(=O)[C@H](CC(C)C)NC(=O)[C@H](CC(C)C)NC(=O)[C@H](Cc1c[nH]cn1)NC(=O)[C@H](CCC(N)=O)NC(=O)[C@H](CCC(N)=O)NC(=O)[C@H](C)NC(=O)[C@H](CCC(=O)O)NC(=O)[C@@H](NC(=O)[C@H](C)NC(=O)[C@H](CCCN=C(N)N)NC(=O)[C@H](CC(C)C)NC(=O)[C@H](CC(C)C)NC(=O)[C@H](CC(N)=O)NC(=O)[C@@H](N)CC(N)=O)[C@@H](C)CC)[C@@H](C)O)C(C)C)C(=O)N[C@@H](CCCCN)C(=O)N[C@@H](CCC(N)=O)C(=O)N[C@@H](CC(C)C)C(=O)N[C@@H](CCC(N)=O)C(=O)N[C@@H](C)C(=O)N[C@@H](CCCN=C(N)N)C(=O)N[C@H](C(=O)N[C@@H](CC(C)C)C(=O)N[C@@H](C)C(=O)N[C@H](C(=O)N[C@@H](CCC(=O)O)C(=O)N[C@@H](CCCN=C(N)N)C(=O)N[C@@H](Cc1ccc(O)cc1)C(=O)N[C@@H](CC(C)C)C(=O)N[C@@H](CCCCN)C(=O)N[C@@H](CC(=O)O)C(=O)N[C@@H](CCC(N)=O)C(=O)O)C(C)C)[C@@H](C)CC` (H-NNLLRAIEAQQHLLQLTVWGIKQLQARILAVERYLKDQ-OH) is 2.7 µM; for `CC[C@H](C)[C@H](NC(C)=O)C(=O)N[C@@H](CCC(=O)O)C(=O)N[C@@H](C)C(=O)N[C@@H](CCC(N)=O)C(=O)N[C@@H](CCC(N)=O)C(=O)N[C@@H](Cc1c[nH]cn1)C(=O)N[C@@H](CC(C)C)C(=O)N[C@@H](CC(C)C)C(=O)N[C@@H](CCC(N)=O)C(=O)N[C@@H](CC(C)C)C(=O)N[C@H](C(=O)N[C@H](C(=O)N[C@@H](Cc1c[nH]c2ccccc12)C(=O)NCC(=O)N[C@H](C(=O)N[C@@H](CCCCN)C(=O)N[C@@H](CCC(N)=O)C(=O)N[C@@H](CC(C)C)C(=O)N[C@@H](CCC(N)=O)C(=O)N[C@@H](C)C(=O)N[C@@H](CCCN=C(N)N)C(=O)N[C@H](C(=O)N[C@@H](CC(C)C)C(=O)N[C@@H](C)C(=O)N[C@H](C(=O)N[C@@H](CCC(=O)O)C(=O)O)C(C)C)[C@@H](C)CC)[C@@H](C)CC)C(C)C)[C@@H](C)O` (Ac-IEAQQHLLQLTVWGIKQLQARILAVE-OH) it is 6.5 µM; for `CC[C@H](C)[C@H](NC(=O)[C@H](CCCN=C(N)N)NC(=O)[C@H](C)NC(=O)[C@H](CCC(N)=O)NC(=O)[C@H](CC(C)C)NC(=O)[C@H](CCC(N)=O)NC(=O)CCCCCNC(=O)CCCCCNC(=O)CNC(=O)[C@H](Cc1c[nH]c2ccccc12)NC(=O)[C@@H](NC(=O)[C@@H](NC(=O)[C@H](CC(C)C)NC(=O)[C@H](CCC(N)=O)NC(=O)[C@H](CC(C)C)NC(=O)[C@H](CC(C)C)NC(=O)[C@H](Cc1c[nH]cn1)NC(=O)[C@H](CCC(N)=O)NC(C)=O)[C@@H](C)O)C(C)C)C(=O)N[C@@H](CC(C)C)C(=O)N[C@@H](C)C(=O)N[C@H](C(=O)N[C@@H](CCC(=O)O)C(=O)O)C(C)C` (HELM PEPTIDE1{[ac].Q.H.L.L.Q.L.T.V.W.G.[O=C(CCCCCN[*:1])[*:2]].[O=C(CCCCCN[*:1])[*:2]].Q.L.Q.A.R.I.L.A.V.E}$$$$V2.0) it is 65.7 µM.

The term IC50 denotes the concentration needed to halve the response being measured. Read a high IC50 as a need for much substance.

For the origin of these results see ChEMBL document CHEMBL1129074, “Inhibitors of human immunodeficiency virus type 1 derived from gp41 transmembrane protein: structure--activity studies” (J Med Chem, 1996).
